From the NIST ThermoML archive (doi:10.1016/j.jct.2005.10.002)
Values joined by “and” are separate entries in the source; they are usually repeats but may differ in a detail not shown here. Equal values may be shown once.

Conditions: Liquid; for mass density: 101.33 kPa

CCC(C)(O)CC [3-methyl-3-pentanol]
Conditions	mass density
278.15 K	840.5 kg/m3 and 841 kg/m3
279.15 K	839.7 kg/m3 and 840.2 kg/m3
280.15 K	838.9 kg/m3 and 839.4 kg/m3
281.15 K	838.1 kg/m3 and 838.5 kg/m3
282.15 K	837.2 kg/m3 and 837.7 kg/m3
283.15 K	836.4 kg/m3 and 836.8 kg/m3
284.15 K	835.6 kg/m3 and 836 kg/m3
285.15 K	834.8 kg/m3 and 835.2 kg/m3
286.15 K	833.9 kg/m3 and 834.4 kg/m3
287.15 K	833.5 kg/m3 and 833.1 kg/m3
288.15 K	832.7 kg/m3 and 832.3 kg/m3
289.15 K	831.9 kg/m3 and 831.4 kg/m3
290.15 K	831 kg/m3 and 830.6 kg/m3
291.15 K	830.1 kg/m3 and 829.7 kg/m3
292.15 K	829.3 kg/m3 and 828.9 kg/m3
293.15 K	828.5 kg/m3 and 828 kg/m3
294.15 K	827.6 kg/m3 and 827.1 kg/m3
295.15 K	826.7 kg/m3 and 826.3 kg/m3
296.15 K	825.9 kg/m3 and 825.4 kg/m3
297.15 K	825 kg/m3 and 824.5 kg/m3
298.15 K	824.1 kg/m3 and 823.6 kg/m3
299.15 K	823.2 kg/m3 and 822.8 kg/m3
300.15 K	822.3 kg/m3 and 821.9 kg/m3
301.15 K	821.5 kg/m3 and 821 kg/m3
302.15 K	820.6 kg/m3 and 820.1 kg/m3
303.15 K	819.7 kg/m3 and 819.2 kg/m3
304.15 K	818.8 kg/m3 and 818.3 kg/m3
305.15 K	817.9 kg/m3 and 817.4 kg/m3
306.15 K	816.9 kg/m3 and 816.5 kg/m3
307.15 K	816 kg/m3 and 815.5 kg/m3
308.15 K	815.1 kg/m3 and 814.6 kg/m3
309.15 K	814.2 kg/m3 and 813.7 kg/m3
310.15 K	813.3 kg/m3 and 812.8 kg/m3
311.15 K	812.3 kg/m3 and 811.8 kg/m3
312.15 K	811.4 kg/m3 and 810.9 kg/m3
313.15 K	810.5 kg/m3 and 810 kg/m3
314.15 K	809.5 kg/m3 and 809 kg/m3
315.15 K	808.6 kg/m3 and 808.1 kg/m3
316.15 K	807.6 kg/m3 and 807.1 kg/m3
317.15 K	806.7 kg/m3 and 806.2 kg/m3
318.15 K	805.7 kg/m3 and 805.2 kg/m3
319.15 K	804.8 kg/m3 and 804.3 kg/m3
320.15 K	803.8 kg/m3 and 803.3 kg/m3
321.15 K	802.8 kg/m3 and 802.3 kg/m3
322.15 K	801.9 kg/m3 and 801.3 kg/m3
323.15 K	800.9 kg/m3 and 800.4 kg/m3
324.15 K	799.9 kg/m3 and 799.4 kg/m3
325.15 K	798.9 kg/m3 and 798.4 kg/m3
326.15 K	798 kg/m3 and 797.4 kg/m3
327.15 K	797 kg/m3 and 796.4 kg/m3
328.15 K	796 kg/m3 and 795.4 kg/m3
329.15 K	795 kg/m3 and 794.4 kg/m3
330.15 K	794 kg/m3 and 793.4 kg/m3
331.15 K	793 kg/m3 and 792.4 kg/m3
332.15 K	792 kg/m3 and 791.4 kg/m3
333.15 K	791 kg/m3 and 790.4 kg/m3
334.15 K	789.9 kg/m3 and 789.4 kg/m3
335.15 K	788.9 kg/m3 and 788.4 kg/m3
336.15 K	787.9 kg/m3 and 787.4 kg/m3
337.15 K	786.9 kg/m3 and 786.4 kg/m3
338.15 K	785.9 kg/m3 and 785.3 kg/m3
339.15 K	784.3 kg/m3
340.15 K	783.3 kg/m3
341.15 K	782.3 kg/m3
342.15 K	781.2 kg/m3
343.15 K	780.2 kg/m3
344.15 K	779.1 kg/m3
345.15 K	778.1 kg/m3
346.15 K	777.1 kg/m3
347.15 K	776 kg/m3
348.15 K	775 kg/m3
349.15 K	773.9 kg/m3
350.15 K	772.9 kg/m3
351.15 K	771.8 kg/m3
352.15 K	770.7 kg/m3
353.15 K	769.7 kg/m3
354.15 K	768.6 kg/m3
355.15 K	767.6 kg/m3
356.15 K	766.5 kg/m3
357.15 K	765.4 kg/m3
358.15 K	764.4 kg/m3
359.15 K	763.3 kg/m3
360.15 K	762.2 kg/m3
361.15 K	761.1 kg/m3
362.15 K	760.1 kg/m3
363.15 K	759 kg/m3
364.15 K	757.9 kg/m3
365.15 K	756.8 kg/m3
366.15 K	755.7 kg/m3
367.15 K	754.6 kg/m3
368.15 K	753.5 kg/m3

speed of sound [m/s]
Conditions	303.15 K	313.15 K	323.15 K	333.15 K	343.15 K	353.15 K	363.15 K	373.15 K
100 kPa	1230.7	1192.7	1154.4	1115.7	1077.3	1037.7	998.2	957.7
10000 kPa	1290.1	1254.9	1219.2	1183.6	1148	1111.6	1076.2	1039.5
20000 kPa	1344.9	1311.8	1278.7	1245	1211.1	1177.7	1144.6	1110.9
30000 kPa	1396.1	1365	1332.4	1300.4	1268.5	1236.9	1205.4	1174
40000 kPa	1443.3	1412.6	1382.1	1351.9	1321.7	1291.4	1261.4	1231.1
50000 kPa	1487.1	1457.9	1428.9	1399.7	1370.5	1342.1	1312.6	1283.7
60000 kPa	1529.7	1500.4	1472.8	1444.4	1416	1387.8	1359.8	1332
70000 kPa	1568.8	1540.7	1513.6	1486.1	1458.4	1431.2	1404.8	1377.5
80000 kPa	1606.2	1578.9	1552.8	1525.6	1499.4	1472.7	1446.9	1420.3
90000 kPa	1641.7	1615	1589.9	1563.8	1537.9	1511.9	1486.5	1461.1
100000 kPa	1675.9	1650	1624.9	1599.9	1574.6	1549.3	1524.4	1499.3

CCC(O)CC [3-pentanol]
speed of sound [m/s]
Conditions	303.15 K	313.15 K	323.15 K	333.15 K	343.15 K	353.15 K	363.15 K	373.15 K
100 kPa	1234.7	1194.7	1155.2	1115.9	1076.8	1036.7	997.3	957.2
10000 kPa	1294	1257	1219.2	1182.2	1146.9	1110.4	1075.3	1038.9
20000 kPa	1348.2	1313	1277.9	1243.1	1209.7	1176.2	1143.2	1109.6
30000 kPa	1397.7	1364.7	1331	1298.2	1266.6	1234.1	1203.5	1171.5
40000 kPa	1443.6	1411.9	1380.2	1348.6	1318.2	1287.8	1258.2	1228.3
50000 kPa	1486.9	1456	1425.8	1395.9	1366.4	1337.3	1308.3	1280.1
60000 kPa	1526	1498.1	1468.5	1439.4	1411.1	1383.1	1355.1	1328.2
70000 kPa	1564.7	1537.4	1508.9	1480.7	1453.1	1425.8	1399.6	1373.1
80000 kPa	1600.5	1574.5	1547.2	1519.8	1492.9	1466.6	1440.8	1415
90000 kPa	1636.4	1610.2	1583.6	1556.9	1530.7	1505	1479.7	1454.6
100000 kPa	1668.2	1644.1	1618.6	1592.2	1566.6	1541.4	1516.9	1492.5
